The values that follow come from US8889704B2 (Array BioPharma Inc., priority 2011, dated 2014).

What all share (format): biochemical
In one assay the target is recombinant rat PIM-3 (Rattus norvegicus, UniProt O70444). The experiment in a line: PIM-3 Assay (as Example A). To be noted: averaged IC50; 30 μM ATP, 3.75 μM PIM2tide, 0.5 nM PIM-3. A digest of the protocol:
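33P incorporation from 30 μM [γ-33P]ATP into 3.75 μM PIM2tide by 0.5 nM rat PIM-3, 60 min at 22 °C in pH 7.4 MOPS buffer, read by P81 filter capture and scintillation counting. Compounds tested in 3-fold dilutions up to 10 μM final, 2% DMSO; percent-of-control data fitted by 4-parameter logistic for IC50.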

Assay [1] concerns the target T1, GST-tagged recombinant full-length human Pim-2 (Homo sapiens, UniProt Q9P1W9).
T1 construct: GST-tagged recombinant full-length human Pim-2; GST
The experiment in a line: PIM-2 Assay (as Example A). The settings on record: averaged IC50; 4 μM ATP, 1.0 μM PIM2tide, 1.5 nM Pim-2. Put shortly: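 IC50 was derived by 4-parameter logistic fitting of percent-of-control data over a 10-point, 3-fold series (highest 10 μM, 2% DMSO). Reactions held 1.5 nM GST-Pim-2 (full-length, human), 4 μM [γ-33P]ATP and 1.0 μM PIM2tide for 60 min at 22 °C, pH 7.4; 33P-peptide captured on P81 filters.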

The target of a further assay is PIM-1 (Homo sapiens, UniProt P11309). The assay is described as follows: Enzyme PIM-1 Assay ([33P]ATP incorporation into PIM2tide, filter plate). To be noted: averaged IC50; 35 μM ATP, 7.5 μM PIM2tide, 0.25 nM PIM-1, 60 min at 22° C. Put shortly: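 Ten-point, 3-fold dilution series (10 μM top, 2% DMSO final) tested for inhibition of 33P transfer from 35 μM ATP to 7.5 μM PIM2tide by 0.25 nM PIM-1. Reaction 60 min, 22 °C, pH 7.4 MOPS/MgCl2 buffer; phosphocellulose capture, scintillation counting, IC50 where fitted POC equals 50.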
Chain of PIM-1 (P11309 whole entry, species assumed): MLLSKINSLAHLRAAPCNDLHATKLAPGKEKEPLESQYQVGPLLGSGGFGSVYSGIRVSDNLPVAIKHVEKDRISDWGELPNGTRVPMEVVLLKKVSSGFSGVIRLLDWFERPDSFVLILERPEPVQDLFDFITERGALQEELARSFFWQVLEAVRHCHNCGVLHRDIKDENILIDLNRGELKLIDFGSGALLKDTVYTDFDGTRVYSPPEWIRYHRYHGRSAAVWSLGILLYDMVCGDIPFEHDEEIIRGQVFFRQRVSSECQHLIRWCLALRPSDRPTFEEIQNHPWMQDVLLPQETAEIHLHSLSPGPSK

Structures can show the parent of a compound that is named as a salt.

T1 sequence (Q9P1W9 whole entry): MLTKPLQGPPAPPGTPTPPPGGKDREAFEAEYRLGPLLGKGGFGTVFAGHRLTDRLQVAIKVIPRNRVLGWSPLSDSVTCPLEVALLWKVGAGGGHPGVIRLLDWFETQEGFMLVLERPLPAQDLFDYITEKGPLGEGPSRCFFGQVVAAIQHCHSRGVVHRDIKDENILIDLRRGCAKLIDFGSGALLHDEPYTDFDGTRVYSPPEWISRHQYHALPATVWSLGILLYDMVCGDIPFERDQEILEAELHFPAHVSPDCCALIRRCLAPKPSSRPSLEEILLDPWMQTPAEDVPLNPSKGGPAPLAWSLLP

The IC50 is the concentration that gives 50% inhibition. As for `CC(C)(O)COc1ccc2ccc(-c3nnc4ccc([C@H](N5CC[C@](C)(N)C5)C(F)(F)F)cn34)nc2c1` [Example 297, 1-(2-(6-((S)-1-((S)-3-amino-3-methylpyrrolidin-1-yl)-2,2,2-trifluoroethyl)-[1,2,4]triazolo[4,3-a]pyridin-3-yl)quinolin-7-yloxy)-2-methylpropan-2-ol dihydrochloride], the results for the half-maximal inhibitory concentration (IC50) (on recombinant rat PIM-3; in assay [1]; at PIM-1) were 0.2 nM, 20 nM and 0.18 nM, respectively.
The corresponding values for `COc1cccc2ccc(-c3nnc4ccc([C@@H](N5CCC(C)(O)C5)C(F)(F)F)cn34)nc12` (single isomer, unassigned; diastereomer 2) [Example 194, hydrochloride] are above 100 nM, above 1000 nM and above 100 nM.
On the same counts, the results for `N[C@H]1CCN([C@H](c2ccc3nnc(-c4ccc5ccc(OC(F)(F)F)cc5n4)n3c2)C(F)(F)F)C1` [Example 239, (S)-1-((R)-2,2,2-trifluoro-1-(3-(7-(trifluoromethoxy)quinolin-2-yl)-[1,2,4]triazolo[4,3-a]pyridin-6-yl)ethyl)pyrrolidin-3-amine dihydrochloride] are 12 nM, above 1000 nM and 1.66 nM.
The corresponding values for `C[C@H](O)COc1cccc2ccc(-c3nnc4ccc([C@@H](N5CC[C@H](N)C5)C(F)(F)F)cn34)nc12` [Example 187, (S)-1-(2-(6-((R)-1-((S)-3-aminopyrrolidin-1-yl)-2,2,2-trifluoroethyl)-[1,2,4]triazolo[4,3-a]pyridin-3-yl)quinolin-8-yloxy)propan-2-ol dihydrochloride] are 0.9 nM, above 100 nM and 0.37 nM.
Turning to `CO[C@H](C)COc1cc2nc(-c3nnc4ccc([C@@H](N5CC[C@H](N)C5)C(F)(F)F)cn34)ccc2cc1F` [Example 325, (S)-1-((R)-2,2,2-trifluoro-1-(3-(6-fluoro-7-((R)-2-methoxypropoxy)quinolin-2-yl)-[1,2,4]triazolo[4,3-a]pyridin-6-yl)ethyl)pyrrolidin-3-amine di-hydrochloride], the IC50 on recombinant rat PIM-3 came out at 0.13 nM; in assay [1] it was 102 nM; at PIM-1, 0.06 nM.
Turning to `Cn1cc(-c2ccc3ccc(-c4nnc5ccc([C@@H](N6CC[C@H](N)C6)C(F)(F)F)cn45)nc3c2)cn1` (single isomer, unassigned) [Example 15, tri-hydrochloride], the results for the IC50 (at recombinant rat PIM-3; in assay [1]; against PIM-1) were 0.3 nM, 59 nM and 0.09 nM, respectively.
In the case of `CC(C)(C)c1cccc2ccc(-c3nnc4ccc([C@@H](N5C[C@@H](N)[C@H](O)C5)C(F)(F)F)cn34)nc12` [Example 145, (3R,4R)-4-amino-1-((R)-1-(3-(8-tert-butylquinolin-2-yl)-[1,2,4]triazolo[4,3-a]pyridin-6-yl)-2,2,2-trifluoroethyl)pyrrolidin-3-ol dihydrochloride], the half-maximal inhibitory concentration (IC50) at recombinant rat PIM-3 came out at 0.7 nM; in assay [1], 30 nM; against PIM-1, 0.25 nM.
On the same counts, the results for `COC[C@@H](C)Oc1cccc2ccc(-c3nnc4ccc([C@@H](N5CC[C@H](N)C5)C(F)(F)F)cn34)nc12` [Example 140, (S)-1-((R)-2,2,2-trifluoro-1-(3-(8-((R)-1-methoxypropan-2-yloxy)quinolin-2-yl)-[1,2,4]triazolo[4,3-a]pyridin-6-yl)ethyl)pyrrolidin-3-amine dihydrochloride] are 0.5 nM, 54 nM and 0.12 nM.
As to `NC[C@H]1CCN(C(c2ccc3nnc(-c4ccc5cccc(OCC6CC6)c5n4)n3c2)C(F)(F)F)C1` (stereo partly drawn) [Example 21, ((3R)-1-(1-(3-(8-(cyclopropylmethoxy)quinolin-2-yl)-[1,2,4]triazolo[4,3-a]pyridin-6-yl)-2,2,2-trifluoroethyl)pyrrolidin-3-yl)methanamine dihydrochloride], the values for the IC50 (on recombinant rat PIM-3; in assay [1]; against PIM-1) were 46 nM, 427 nM and 1.14 nM, respectively.
On the same counts, the results for `CCOc1ccc2ccc(-c3nnc4ccc([C@H](N5CC[C@H](N)C5)C(F)(F)F)cn34)nc2c1` [Example 256, (S)-1-((S)-1-(3-(7-ethoxyquinolin-2-yl)-[1,2,4]triazolo[4,3-a]pyridin-6-yl)-2,2,2-trifluoroethyl)pyrrolidin-3-amine dihydrochloride] are 1 nM, 199 nM and 0.58 nM.
The corresponding values for `COCC(C)(COC)c1cccc2ccc(-c3nnc4ccc([C@@H](N5CC[C@H](N)C5)C(F)(F)F)cn34)nc12` [Example 110, (S)-1-((R)-1-(3-(8-(1,3-dimethoxy-2-methylpropan-2-yl)quinolin-2-yl)-[1,2,4]triazolo[4,3-a]pyridin-6-yl)-2,2,2-trifluoroethyl)pyrrolidin-3-amine dihydrochloride] are 1.8 nM, 95 nM and 0.19 nM.
The corresponding values for `COCCc1cccc2ccc(-c3nnc4ccc([C@@H](N5CC[C@H](N)C5)C(F)(F)F)cn34)nc12` [Example 111, (S)-1-((R)-2,2,2-trifluoro-1-(3-(8-(2-methoxyethyl)quinolin-2-yl)-[1,2,4]triazolo[4,3-a]pyridin-6-yl)ethyl)pyrrolidin-3-amine dihydrochloride] are 1 nM, 52 nM and 0.07 nM.
On to `COCC1(c2cccc3ccc(-c4nnc5ccc([C@@H](N6CC[C@H](N)C6)C(F)(F)F)cn45)nc23)CC1` [Example 112, (S)-1-((R)-2,2,2-trifluoro-1-(3-(8-(1-(methoxymethyl)cyclopropyl)quinolin-2-yl)-[1,2,4]triazolo[4,3-a]pyridin-6-yl)ethyl)pyrrolidin-3-amine dihydrochloride], for which the concentration for half-maximal inhibition (IC50) on recombinant rat PIM-3 turned out to be 1.4 nM; in assay [1], 21 nM; at PIM-1, 0.12 nM.
The corresponding values for `COCC1(c2cc3nc(-c4nnc5ccc([C@@H](N6CC[C@H](N)C6)C(F)(F)F)cn45)ccc3cc2F)CC1` [Example 165, (S)-1-((R)-2,2,2-trifluoro-1-(3-(6-fluoro-7-(1-(methoxymethyl)cyclopropyl)quinolin-2-yl)-[1,2,4]triazolo[4,3-a]pyridin-6-yl)ethyl)pyrrolidin-3-amine dihydrochloride] are 6.6 nM, above 100 nM and 3.83 nM.
The corresponding values for `COCCCOc1cc(F)cc2ccc(-c3nnc4ccc([C@@H](N5CC[C@H](N)C5)C(F)(F)F)cn34)nc12` [Example 233, (S)-1-((R)-2,2,2-trifluoro-1-(3-(6-fluoro-8-(3-methoxypropoxy)quinolin-2-yl)-[1,2,4]triazolo[4,3-a]pyridin-6-yl)ethyl)pyrrolidin-3-amine dihydrochloride] are 1.1 nM, 260 nM and 0.28 nM.
Consider `CCOc1cccc2ccc(-c3nnc4ccc([C@@H](N5CC[C@H](N)C5)C(F)(F)F)cn34)nc12` [Example 79, (S)-1-((R)-1-(3-(8-ethoxyquinolin-2-yl)-[1,2,4]triazolo[4,3-a]pyridin-6-yl)-2,2,2-trifluoroethyl)pyrrolidin-3-amine], for which the IC50 at recombinant rat PIM-3 was determined as 3 nM; in assay [1], 58 nM; on PIM-1, 0.16 nM.
On the same counts, the results for `Cc1cc(-c2ccc3ccc(-c4nnc5ccc([C@@H](N6CC[C@H](N)C6)C(F)(F)F)cn45)nc3c2C)n(C)n1` [Example 213, (3S)-1-((1R)-1-(3-(7-(1,3-dimethyl-1H-pyrazol-5-yl)-8-methylquinolin-2-yl)-[1,2,4]triazolo[4,3-a]pyridin-6-yl)-2,2,2-trifluoroethyl)pyrrolidin-3-amine] are 8 nM, above 1000 nM and 0.64 nM.
Regarding `CC(C)Oc1cc(F)cc2ccc(-c3nnc4ccc([C@@H](N5C[C@@H](N)[C@@H](O)C5)C(F)(F)F)cn34)nc12` [Example 132, (3S,4R)-4-amino-1-((R)-2,2,2-trifluoro-1-(3-(6-fluoro-8-isopropoxyquinolin-2-yl)-[1,2,4]triazolo[4,3-a]pyridin-6-yl)ethyl)pyrrolidin-3-ol dihydrochloride], the IC50 was 16 nM on recombinant rat PIM-3, 538 nM in assay [1] and 4.42 nM against PIM-1.
As to `COCCc1ccc2ccc(-c3nnc4ccc([C@@H](N5CC[C@H](N)C5)C(F)(F)F)cn34)nc2c1` [Example 269, (S)-1-((R)-2,2,2-trifluoro-1-(3-(7-(2-methoxyethyl)quinolin-2-yl)-[1,2,4]triazolo[4,3-a]pyridin-6-yl)ethyl)pyrrolidin-3-amine dihydrochloride], the IC50 was 2 nM on recombinant rat PIM-3, 413 nM in assay [1] and 0.37 nM against PIM-1.
On the same counts, the results for `CO[C@@H](C)COc1cccc2ccc(-c3nnc4ccc([C@@H](N5CC[C@H](N)C5)C(F)(F)F)cn34)nc12` [Example 212, (S)-1-((R)-2,2,2-trifluoro-1-(3-(8-((S)-2-methoxypropoxy)quinolin-2-yl)-[1,2,4]triazolo[4,3-a]pyridin-6-yl)ethyl)pyrrolidin-3-amine dihydrochloride] are 0.3 nM, 72 nM and 0.14 nM.
